# Assay results as given in US20190343782A1, “METHODS OF TREATING LIVER TOXICITY AND DISORDERS” (Yeda Research and Development Co. Ltd., priority 2016, published 2019).
# Experiment: APAP-induced hepatotoxicity: liver enzyme release and liver histology
# Format: in vivo
# Conditions: control mice; APAP 500 mg/kg intraperitoneally at ZT0 versus ZT12; analyzed 10 hours after injection
# Protocol: Mice: C57B1/6 mice were purchased from Harlan and allowed to acclimatize to the animal facility environment for 2 weeks before used for experimentation. […] In all experiments, age- and gender-matched mice were used. Mice were 8-9 weeks of age at the beginning of experiments. All mice were kept at a strict 24-hour light-dark cycle, with lights being turn on from 6 am to 6 pm. […] Acetaminophen was administered intraperitoneally at a concentration of 500 mg/kg at either ZT0 or ZT12, and mice were analyzed 10 hours after injection. All antibiotics as well as acetaminophen were obtained from Sigma Aldrich.
# Histology: Sections from the left lobe of the liver were fixed in paraformaldehyde and embedded in paraffin for staining with H&E. Subsequently, sections were examined by a blinded veterinary pathologist and scored for necrosis and hemorrhage on a scale from 0 (healthy) to 3 (most severe).
# Statistical analysis: Data are expressed as mean ±SEM. […] Unless stated otherwise, elements with p<0.05 and q<0.1 were considered significant. For metabolites, q<0.2 was considered significant. For two-group comparisons, Mann-Whitney U-test was used and comparisons with p<0.05 were considered significant.
compound,measurement,value
"CC(=O)Nc1ccc(O)cc1 [APAP, acetaminophen]","APAP-induced hepatotoxicity (liver enzyme release, liver histology)",dramatically exacerbated liver toxicity when APAP was injected at ZT12 as compared to ZTO
